The subject of test [1] is NCI-H358-AMGR drug-resistant cell line. As to the kind of experiment: NCI-H358-AMGR drug-resistant cell proliferation inhibitory activity test. Format: cell-based. Particulars: for IC50: 72 h, NCI-H358-AMGR drug-resistant cells, 3 days incubation, CellTiter-Glo. As to the method:
Test Example 6t Generation of NCI-H358-AMGR Drug-Resistant Cell Line
NCI-H358 cells were seeded and cultured at 50 to 70% confluence in six-well plate with RPMI-640 (10% FBS) medium at 37° C. with 5%4 CO2. AMG510 was added for induction at three starting concentrations of 1 nM, 10 nM and 50 nM, and the medium containing the same concentration of AMG510 was replaced every 3 days. Cells were passaged once they reached confluence. After every, two passages at a given concentration of drug, the concentration was increased in a 3-old increment until final concentrations of 1 μM for AMG510 was achieved.
(§1) NCI-H358-AMGR cells in logarithmic growth phase were collected and seeded into a clear-bottom 96-well plate at a density of 4×10^3 cells per well in 80 μL of medium, and then incubated overnight at 37° C. with 5% CO2. The compounds were serially diluted 5-fold in DMSO to obtain 8 concentrations, and then further diluted with RPMI-640) (10% FBS) cell culture medium to obtain the working solutions (5×), 20 μL of each working solution was added to the cell culture supernatant in each well, and the plate was further incubated for 3 days at 37° C. with 5% CO2. The plate was then equilibrated with CellTiter-Glo® reagent at room temperature (25° C.) for 10-30 minutes. After aspirating 50 μL of the medium, 50 μL of CellTiter-Glo®, reagent was added. The cells were thoroughly mixed with the CellTiter-Glo®, reagent using a microplate shaker for 2 minutes, and then incubated at room temperature for 10 minutes. The %-well plate was placed in a multi-mode microplate reader to record the luminescence values (RLU).
(§2) The inhibitory rate was calculated using the following formula: […]
Data were analyzed using GraphPad Prism for IC50 values (Note: The negative control refers to the group without inhibitor).
For orientation: ATP-based viability assays read luminescence as a measure of living cells.

Test [2] deals with NCI-H358 cells (KRAS G12C mutant). As to the kind of experiment: NCI-H358 cell proliferation inhibition (CellTiter-Glo). Particulars: Homo sapiens, NCI-H358, 72 h; H358 cells (G12C mutation), 3 days, Table 6; read-out: NCI-H358 (IC50). Format: cell-based.
The test system of test [3] is MIA PaCa-2-AMGR drug-resistant cell line. As to the kind of experiment: MIA PaCa-2-AMGR drug-resistant cell proliferation inhibitory activity test. The class given is cell-based. The note with it: for IC50: 72 h, MIA PaCa-2-AMGR drug-resistant cells, 3 days incubation, CellTiter-Glo. The method, then:
Test Example 7: Generation of MIA PaCa-2-AMGR drug-resistant cell line
MIA PaCa-2 cells were seeded and cultured at 50 to 70% confluence in six-well plate with DMEM (10% FBS+2.5% horse serum) medium at 37° C. with 5% CO2. AMG510 was added for induction at three starting concentrations of 1 nM, 10 nM and 50 nM, and the medium containing the same concentration of AMG510 was replaced every 3 days. Cells were passaged once they reached confluence. After every two passages at a given concentration of drug, the concentration was increased in a 3-fold increment until final concentrations of 1 μM for AMG510 was achieved.
as §1, with “MIA PaCa-2-AMGR” for “NCI-H358-AMGR”, “DMEM” for “RPMI-640)”, “FBS+2.5% horse serum)” for “FBS)”, “CellTiter-Glo®” for “CellTiter-Glo®,”, “96-well” for “%-well”
as §2
Data were analyzed using GraphPad Prism for IC50 values (Note: The negative control refers to the group without inhibitor) The data were presented m Table 9

The subject of test [4] is MIA PaCa-2 cells (KRAS G12C mutant). As to the kind of experiment: MIA PaCa-2 cell anti-proliferation (CellTiter-Glo). The class given is cell-based. The note with it: Homo sapiens. As to the method:
The number of viable cells was determined using the CellTiter-Glo® assay to evaluate the anti-proliferation efficacy of compounds. […] The compounds were serially diluted 4-fold in DMSO to obtain 9 concentrations, and then further diluted with DMEM (10% FBS+2.5% horse serum+1% penicillin/streptomycin) cell culture medium to obtain the working solutions (2×), 15 μL of each working solution was added to the cell culture supernatant in each well, and the cells were further incubated for 3 days at 37° C. with 5% CO2. The plate was then equilibrated with CellTiter-Glo® reagent at room temperature (25° C.) for 30 minutes. After adding 25 μL of CellTiter-Glo®, reagent, the cells were thoroughly mixed with the CellTiter-Glo® reagent using a microplate shaker for 2 minutes, and then incubated at room temperature for at least 30 minutes. […] Data were analyzed using GraphPad Prism for IC50 values (Note: The negative control refers to the group without inhibitor).

Test [5] concerns the target PI3Kδ (Homo sapiens (Human), UniProt O00329). Put plainly: Inhibition of PI3Kδ efficacy assay (ADP-Glo kinase assay). The class given is biochemical. Particulars: read-out: PI3Kδ inhibitory activity (IC50). In outline: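 Luminescent ADP-Glo readout of PI3Kδ: after a 60 min RT reaction with PI/ATP substrate, ATP depletion (40 min) and ADP detection (40 min) steps followed. Compounds tested as eight five-fold serial dilutions; inhibition rates fitted to log(inhibitor) vs. response, variable slope, for IC50.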

Test [6] concerns the target PI3Kα (Homo sapiens (Human), UniProt P42336). As to the kind of experiment: Inhibition of PI3Kα efficacy assay (ADP-Glo kinase assay). Format: biochemical. The note with it: read-out: PI3Kα inhibitory activity (IC50). The procedure, abridged: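 ADP-Glo luminescent detection of ADP from PI3Kα acting on PI substrate with ATP, 60 min at RT; compounds in 8-point five-fold serial dilution from 2 mM DMSO stock. IC50 from four-parameter variable-slope fit.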

The mark [7] stands for this setting: 72 h, MIA Paca-2 cells, 3 days, Table 7, read-out: MIA PaCa-2 (IC50).

Structures are written as SMILES. Like-named read-outs stand apart in the source and are kept apart here.

PI3Kα, sequence (P42336 whole entry): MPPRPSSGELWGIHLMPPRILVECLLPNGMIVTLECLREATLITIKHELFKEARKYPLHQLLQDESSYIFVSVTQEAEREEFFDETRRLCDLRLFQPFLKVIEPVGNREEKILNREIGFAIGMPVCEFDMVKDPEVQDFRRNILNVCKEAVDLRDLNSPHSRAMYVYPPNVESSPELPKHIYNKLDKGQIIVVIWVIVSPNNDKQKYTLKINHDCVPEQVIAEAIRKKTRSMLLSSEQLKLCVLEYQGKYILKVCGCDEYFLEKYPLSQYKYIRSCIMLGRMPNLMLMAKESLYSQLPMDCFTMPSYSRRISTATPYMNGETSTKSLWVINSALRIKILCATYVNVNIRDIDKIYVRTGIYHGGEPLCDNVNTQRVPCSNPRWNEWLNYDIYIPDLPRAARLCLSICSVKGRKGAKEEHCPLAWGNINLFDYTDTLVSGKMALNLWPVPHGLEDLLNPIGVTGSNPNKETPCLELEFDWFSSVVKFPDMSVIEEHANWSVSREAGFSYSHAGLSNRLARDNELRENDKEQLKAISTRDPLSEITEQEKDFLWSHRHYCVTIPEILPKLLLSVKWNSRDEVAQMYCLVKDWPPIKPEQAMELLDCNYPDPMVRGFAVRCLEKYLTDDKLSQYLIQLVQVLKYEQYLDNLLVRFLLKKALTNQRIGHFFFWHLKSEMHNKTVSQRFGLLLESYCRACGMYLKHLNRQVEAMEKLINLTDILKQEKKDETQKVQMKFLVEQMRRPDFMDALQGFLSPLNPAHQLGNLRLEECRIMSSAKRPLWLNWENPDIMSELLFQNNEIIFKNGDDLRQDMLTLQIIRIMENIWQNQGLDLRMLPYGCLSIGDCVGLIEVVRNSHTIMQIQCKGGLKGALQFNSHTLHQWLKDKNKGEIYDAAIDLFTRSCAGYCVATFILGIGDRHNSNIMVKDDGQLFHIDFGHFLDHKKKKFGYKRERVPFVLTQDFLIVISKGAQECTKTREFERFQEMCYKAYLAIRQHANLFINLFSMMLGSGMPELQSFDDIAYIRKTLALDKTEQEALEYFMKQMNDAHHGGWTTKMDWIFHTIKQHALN
PI3Kα, sequence (P27986 whole entry partner): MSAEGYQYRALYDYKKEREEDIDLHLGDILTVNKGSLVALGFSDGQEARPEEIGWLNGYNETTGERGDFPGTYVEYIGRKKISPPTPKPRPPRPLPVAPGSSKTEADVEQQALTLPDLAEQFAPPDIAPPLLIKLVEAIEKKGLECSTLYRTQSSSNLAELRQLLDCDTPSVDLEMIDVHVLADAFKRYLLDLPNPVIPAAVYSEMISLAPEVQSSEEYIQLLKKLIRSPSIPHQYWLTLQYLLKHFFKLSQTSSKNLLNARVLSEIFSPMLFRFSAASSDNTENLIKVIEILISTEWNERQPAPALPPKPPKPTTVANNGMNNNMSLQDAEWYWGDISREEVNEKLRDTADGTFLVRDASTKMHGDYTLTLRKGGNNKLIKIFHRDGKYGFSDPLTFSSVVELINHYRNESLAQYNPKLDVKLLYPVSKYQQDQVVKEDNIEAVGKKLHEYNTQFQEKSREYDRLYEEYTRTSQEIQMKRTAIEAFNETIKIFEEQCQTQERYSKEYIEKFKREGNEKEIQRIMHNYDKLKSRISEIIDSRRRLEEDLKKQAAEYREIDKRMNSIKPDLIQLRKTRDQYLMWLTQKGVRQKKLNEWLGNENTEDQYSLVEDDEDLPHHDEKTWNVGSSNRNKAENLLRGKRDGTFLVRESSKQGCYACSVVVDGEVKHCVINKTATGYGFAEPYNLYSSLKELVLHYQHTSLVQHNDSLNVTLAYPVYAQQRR
PI3Kδ, sequence (O00329 whole entry): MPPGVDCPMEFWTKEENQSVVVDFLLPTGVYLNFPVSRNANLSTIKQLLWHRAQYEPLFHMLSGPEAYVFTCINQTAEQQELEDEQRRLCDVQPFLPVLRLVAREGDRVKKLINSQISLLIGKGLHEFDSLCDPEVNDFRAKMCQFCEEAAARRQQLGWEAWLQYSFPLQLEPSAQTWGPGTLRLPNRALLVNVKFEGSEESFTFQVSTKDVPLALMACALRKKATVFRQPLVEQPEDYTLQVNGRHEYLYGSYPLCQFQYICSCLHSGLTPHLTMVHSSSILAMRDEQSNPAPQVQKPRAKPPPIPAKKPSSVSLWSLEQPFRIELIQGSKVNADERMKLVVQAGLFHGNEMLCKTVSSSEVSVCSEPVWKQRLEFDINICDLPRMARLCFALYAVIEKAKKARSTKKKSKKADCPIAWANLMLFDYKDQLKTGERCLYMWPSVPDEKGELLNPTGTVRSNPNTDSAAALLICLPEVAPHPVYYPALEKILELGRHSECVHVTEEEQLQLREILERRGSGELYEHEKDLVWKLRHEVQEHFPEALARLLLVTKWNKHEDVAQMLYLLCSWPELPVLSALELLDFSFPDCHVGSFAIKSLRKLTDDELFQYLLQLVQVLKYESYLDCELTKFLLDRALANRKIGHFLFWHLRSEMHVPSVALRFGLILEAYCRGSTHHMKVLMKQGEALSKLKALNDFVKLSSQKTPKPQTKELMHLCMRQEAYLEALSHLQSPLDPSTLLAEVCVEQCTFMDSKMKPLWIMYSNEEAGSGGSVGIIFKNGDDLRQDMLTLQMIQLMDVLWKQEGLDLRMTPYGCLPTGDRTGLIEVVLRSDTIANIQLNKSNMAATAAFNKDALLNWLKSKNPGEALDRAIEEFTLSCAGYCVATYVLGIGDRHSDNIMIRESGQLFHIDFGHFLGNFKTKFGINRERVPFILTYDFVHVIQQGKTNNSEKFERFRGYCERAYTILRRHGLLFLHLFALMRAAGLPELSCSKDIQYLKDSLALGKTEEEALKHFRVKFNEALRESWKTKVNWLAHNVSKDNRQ
PI3Kδ, sequence (P27986 whole entry partner): as the sequence (P27986 whole entry partner) above

Turning to `COc1ncc(-c2ccc3ncnc(N4CCN(C(=O)/C=C/C(C)=O)C[C@@H]4C)c3c2)cc1NS(=O)(=O)c1ccc(F)cc1F` [Example 8, (S,E)-2,4-difluoro-N-(2-methoxy-5-(4-(2-methyl-4-(4-oxopent-2-enoyl)piperazin-1-yl)quinazolin-6-yl)pyridin-3-yl)benzenesulfonamide], the IC50 (as a rule, the concentration that gives 50% inhibition) in test [1] was 81.6 nM; in test [2], 91.2 nM; in test [3], 250 nM; in test [4] (setting [7]) it was 73.6 nM.
As for `COc1ncc(-c2ccc3ncnc(N4CCN(C(=O)/C=C/C(C)=O)CC4)c3c2)cc1NS(=O)(=O)c1cccc2cccc(Cl)c12` [Example 96, (E)-8-chloro-N-(2-methoxy-5-(4-(4-(4-oxopent-2-enoyl)piperazin-1-yl)quinazolin-6-yl)pyridin-3-yl)naphthalene-1-sulfonamide], the IC50 in test [5] (Table 2) turned out to be 171 nM; in test [2] it was 35.8 nM; in test [4] (setting [7]), 90 nM; in test [6] (Table 2), 1 nM.
For the molecule `C=C(F)C(=O)N1CCN(c2ncnc3ccc(-c4cnc(OC)c(NS(=O)(=O)c5ccc(F)cc5F)c4)cc23)CC1` [Example 59, 2,4-difluoro-N-(5-(4-(4-(2-fluoroacryloyl)piperazin-1-yl)quinazolin-6-yl)-2-methoxypyridin-3-yl)benzenesulfonamide], the IC50 was 13.1 nM in test [5] (Table 2), 30.6 nM in test [2], 141 nM in test [3] and 3.3 nM in test [6] (Table 2).
`COc1ncc(-c2ccc3ncnc(N4CCN(C(=O)/C=C/C(C)=O)CC4)c3c2)cc1S(=O)(=O)Nc1ccc(F)cc1F` [Example 166, (E)-N-(2,4-difluorophenyl)-2-methoxy-5-(4-(4-(4-oxopent-2-enoyl)piperazin-1-yl)quinazolin-6-yl)pyridine-3-sulfonamide]: the IC50 in test [5] (Table 4) was 22.3 nM; in test [2] it was 344 nM; in test [4] (setting [7]), 369 nM; in test [6] (Table 4), 16.1 nM.
Regarding `COc1ncc(-c2ccc3ncnc(N4CCC5(CN(C(=O)/C=C/C(C)=O)C5)C4)c3c2)cc1NS(=O)(=O)c1ccc(F)cc1F` [Example 13, (E)-2,4-difluoro-N-(2-methoxy-5-(4-(2-(4-oxopent-2-enoyl)-2,6-diazaspiro[3.4]octan-4-yl)quinazolin-6-yl)pyridin-3-yl)benzenesulfonamide], the figures for the half-maximal inhibitory concentration (IC50) in test [2], in test [3] and in test [4] (setting [7]) were 73.3 nM, 433 nM and 144 nM, respectively.
Turning to `C=CC(=O)N1CCC(Nc2ncnc3ccc(-c4cnc(Cl)c(NS(=O)(=O)c5ccc(F)cc5F)c4)nc23)CC1` [Example 2, N-(5-(4-((1-acryloylpiperidin-4-yl)amino)pyrido[3,2-d]pyrimidin-6-yl)-2-chloropyridin-3-yl)-2,4-difluorobenzenesulfonamide], the IC50 in test [5] (Table 1) is 41.8 nM; in test [2] it was 485 nM; in test [4] (setting [7]), 485 nM; in test [6] (Table 1), 7.3 nM.
On to `COc1ncc(-c2ccc3ncnc(N4CCN(C(=O)/C=C/C(C)=O)CC4)c3n2)cc1NS(=O)(=O)c1sc(C)nc1C` [Example 222, (E)-N-(2-methoxy-5-(4-(4-(4-oxopent-2-enoyl)piperazin-1-yl)pyrido[3,2-d]pyrimidin-6-yl)pyridin-3-yl)-2,4-dimethyl-thiazole-5-sulfonamide], for which the IC50 worked out at 11.7 nM in test [5] (Table 4), 35.1 nM in test [2], 29.1 nM in test [4] (setting [7]) and 0.49 nM in test [6] (Table 4).
As for `COc1ncc(-c2ccc3ncnc(N4CCN(C(=O)/C=C/C(C)=O)CC4)c3n2)cc1NS(=O)(=O)c1cnccc1C` [Example 223, (E)-N-(2-methoxy-5-(4-(4-(4-oxopent-2-enoyl)piperazin-1-yl)pyrido[3,2-d]pyrimidin-6-yl)pyridin-3-yl)-4-methyl-pyridine-3-sulfonamide], the IC50 is 85.2 nM in test [1], 135 nM in test [2], 63.1 nM in test [3] and 94.4 nM in test [4] (setting [7]).
For `C=CC(=O)N1CCN(c2nc(=O)n(-c3c(C)ccnc3C(C)C)c3nc(-c4c(O)cccc4F)c(F)cc23)[C@@H](C)C1` [AMG-510, reference compound], the inhibition (commonly the change of the read-out against control, counted positive when it falls) at 10 µM in test [1] (10 μM, NCI-H358-AMGR, read-out: inhibition rate at the maximum dose) was at most 50%; in test [3] (10 μM, MIA PaCa-2-AMGR, read-out: inhibition rate at the maximum dose), under 50%. Further, the IC50 in test [1] and in test [3] was over 10000 nM each time.
On to `C=C(C(=O)N1CCN(c2ncnc3ccc(-c4cnc(OC)c(NS(=O)(=O)c5ccc(F)cc5F)c4)cc23)CC1)C(C)O` (centres unmarked) [Example 167, 2,4-difluoro-N-(5-(4-(4-(3-hydroxy-2-methylenebutanoyl)piperazin-1-yl)quinazolin-6-yl)-2-methoxypyridin-3-yl)benzenesulfonamide], for which the IC50 worked out at 11.8 nM in test [5] (Table 4); 73 nM in test [1]; 36.5 nM in test [2]; 112 nM in test [4] (MIA PaCa-2, 72 h, read-out: MIA PaCa-2 (IC50, nM)); 2.2 nM in test [6] (Table 4).
As to `C=CC(=O)N1CCN(c2ncnc3ccc(-c4cnc(OC)c(NS(C)(=O)=O)c4)cc23)CC1` [Example 4, N-(5-(4-(4-acryloylpiperazin-1-yl)quinazolin-6-yl)-2-methoxypyridin-3-yl)methanesulfonamide], the IC50 in test [5] (Table 1) is 12 nM; in test [2], 494 nM; in test [4] (setting [7]) it was 494 nM; in test [6] (Table 1), 9.5 nM.
On to `COc1ncc(-c2ccc3ncnc(C4=CCN(C(=O)/C=C/C(C)=O)CC4)c3n2)cc1NS(=O)(=O)c1ccccc1F` [Example 238, (E)-2-fluoro-N-(2-methoxy-5-(4-(1-(4-oxopent-2-enoyl)-1,2,3,6-tetrahydropyridin-4-yl)pyrido[3,2-d]pyrimidin-6-yl)pyridin-3-yl)benzenesulfonamide], for which the IC50 in test [2] was found to be 65.8 nM; in test [4] (setting [7]), 79.5 nM; in test [6] (Table 4), 3.1 nM.
